# Test results from patent US8026243B2, “[4,5′]Bipyrimidinyl-6,4′-diamine derivatives as protein kinase inhibitors” (Novartis AG, priority 2006, dated 2011).
# Target: T1, Ba/F3-TEL-FGFR3 cells (Homo sapiens, UniProt P22607)
# T1 construct: fused on or other part: The N-terminal oligomerising part of TEL (ETV6) is fused before the intracellular kinase part of FGFR3; P41212 (Transcription factor ETV6)
# Experiment: FGFR3 cellular assay: proliferation of transformed Ba/F3-TEL-FGFR3 cells (AlamarBlue)
# Assay type: cell-based
# Details: 48 hours incubation, class symbols
# Description: Compounds of the invention are tested for their ability to inhibit transformed Ba/F3-TEL-FGFR3 cells proliferation, which is dependent on FGFR3 cellular kinase activity. Ba/F3-TEL-FGFR3 are cultured up to 800,000 cells/mL in suspension, with RPMI 1640 supplemented with 10% fetal bovine serum as the culture medium. Cells are dispensed into 384-well format plate at 5000 cell/well in […], culture medium. Compounds of the invention are dissolved and diluted in dimethylsulfoxide (DMSO). Twelve points 1:3 serial dilutions are made into DMSO to create concentrations gradient ranging typically from 10 mM to 0.05 μM. Cells are added with 50 nL of diluted compounds and incubated for 48 hours in cell culture incubator. AlamarBlue® (TREK Diagnostic Systems), which can be used to monitor the reducing environment created by proliferating cells, are added to cells at final concentration of 10%. After additional four hours of incubation in a 37° C. cell culture incubator, fluorescence signals from reduced AlamarBlue® (Excitation at 530 nm, Emission at 580 nm) are quantified on Analyst GT (Molecular Devices Corp.). IC50 values are calculated by linear regression analysis of the percentage inhibition of each compound at 12 concentrations.
# T1 sequence (P22607 whole entry, change not shown, the tested form may be a part): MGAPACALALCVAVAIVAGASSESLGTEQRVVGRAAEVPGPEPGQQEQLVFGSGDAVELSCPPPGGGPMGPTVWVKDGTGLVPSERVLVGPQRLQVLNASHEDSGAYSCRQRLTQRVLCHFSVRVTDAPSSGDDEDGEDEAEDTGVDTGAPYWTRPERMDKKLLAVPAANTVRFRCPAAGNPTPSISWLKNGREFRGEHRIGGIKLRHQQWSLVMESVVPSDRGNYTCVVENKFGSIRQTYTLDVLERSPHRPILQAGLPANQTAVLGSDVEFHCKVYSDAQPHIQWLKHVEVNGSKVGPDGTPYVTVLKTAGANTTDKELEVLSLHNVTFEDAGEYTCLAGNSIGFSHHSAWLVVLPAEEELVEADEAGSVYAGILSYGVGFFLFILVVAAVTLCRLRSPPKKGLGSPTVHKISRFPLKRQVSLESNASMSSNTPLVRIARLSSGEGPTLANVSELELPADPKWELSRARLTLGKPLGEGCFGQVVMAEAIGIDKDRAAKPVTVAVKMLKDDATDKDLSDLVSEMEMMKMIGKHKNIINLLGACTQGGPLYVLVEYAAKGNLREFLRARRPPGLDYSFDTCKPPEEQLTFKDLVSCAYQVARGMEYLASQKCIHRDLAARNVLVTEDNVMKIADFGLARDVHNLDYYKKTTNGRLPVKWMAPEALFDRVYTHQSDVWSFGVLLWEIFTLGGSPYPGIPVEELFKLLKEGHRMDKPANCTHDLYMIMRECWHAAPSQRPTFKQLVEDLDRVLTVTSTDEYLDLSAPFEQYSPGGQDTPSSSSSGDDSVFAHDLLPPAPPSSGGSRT
row,SMILES,GI50
1,"CCN1CCN(Cc2ccc(Nc3cc(-c4cncnc4Nc4c(Cl)c(OC)cc(C(=O)NC5CC5)c4Cl)ncn3)nc2)CC1 [Compound 58, 2,4-Dichloro-N-cyclopropyl-3-{6-[5-(4-ethyl-piperazin-1-ylmethyl)-pyridin-2-ylamino]-[4,5′]bipyrimidinyl-4′-ylamino}-5-methoxy-benzamide]",< 100 nM
2,"CCN1CCN(c2ccc(Nc3cc(-c4cncnc4Nc4c(F)c(OC)cc(OC)c4Cl)ncn3)cc2)CC1 [Compound 59, N4′-(2-Chloro-6-fluoro-3,5-di-methoxy-phenyl)-N6-[4-(4-ethyl-piperazin-1-yl)-phenyl]-[4,5′]bipyrimidinyl-6,4′-diamine]",< 100 nM
3,"COc1cc(OC)c(Cl)c(Nc2ncncc2-c2cc(Nc3cc(CN4CCCC4)ccn3)ncn2)c1F [Compound 60, N4′-(2-Chloro-6-fluoro-3,5-dimethoxy-phenyl)-N6-(4-pyrrolidin-1-ylmethyl-pyridin-2-yl)-[4,5′]bipyrimidinyl-6,4′-diamine]",< 100 nM
4,"COc1cc(OC)c(Cl)c(Nc2ncncc2-c2cc(Nc3ccc(CN4CCN(C(C)=O)CC4)cn3)ncn2)c1F [Compound 61, 1-(4-{6-[4′-(2-Chloro-6-fluoro-3,5-dimethoxy-phenylamino)-[4,5′]bipyrimidinyl-6-ylamino]-pyridin-3-ylmethyl}-piperazin-1-yl)-ethanone]",< 100 nM
5,"CCN1CCN(c2ccc(Nc3cc(-c4cncnc4Nc4c(F)c(OC)cc(OC)c4F)ncn3)nc2)CC1 [Compound 62, N4′-(2,6-Difluoro-3,5-dimethoxy-phenyl)-N6-[5-(4-ethyl-piperazin-1-yl)-pyridin-2-yl]-[4,5′]bipyrimidinyl-6,4′-diamine]",< 100 nM
6,"COc1cc(OC)c(F)c(Nc2ncncc2-c2cc(Nc3ccc(CN4CCOCC4)cn3)ncn2)c1F [Compound 63, N4′-(2,6-Difluoro-3,5-dimethoxy-phenyl)-N6-(5-morpholin-4-ylmethyl-pyridin-2-yl)-[4,5′]bipyrimidinyl-6,4′-diamine]",< 100 nM
7,"CCN1CCN(Cc2ccc(Nc3cc(-c4cncnc4Nc4c(F)c(OC)cc(OC)c4F)ncn3)nc2)CC1 [Compound 64, N4′-(2,6-Difluoro-3,5-dimethoxy-phenyl)-N6-[5-(4-ethyl-piperazin-1-ylmethyl)-pyridin-2-yl]-[4,5′]bipyrimidinyl-6,4′-diamine]",< 100 nM
8,"COc1cc(OC)c(F)c(Nc2ncncc2-c2cc(Nc3cc(CN4CCOCC4)ccn3)ncn2)c1F [Compound 65, N4′-(2,6-Difluoro-3,5-dimethoxy-phenyl)-N6-(4-morpholin-4-ylmethyl-pyridin-2-yl)-[4,5′]bipyrimidinyl-6,4′-diamine]",< 100 nM
9,"COc1cc(OC)c(F)c(Nc2ncncc2-c2cc(Nc3ccc(CN4CCN(C(C)=O)CC4)cn3)ncn2)c1F [Compound 66, 1-(4-{6-[4′-(2,6-Difluoro-3,5-dimethoxy-phenylamino)-[4,5′]bipyrimidinyl-6-ylamino]-pyridin-3-ylmethyl}-piperazin-1-yl)-ethanone]",< 100 nM
10,"COc1cc(C(=O)NC2CC2)c(Cl)c(Nc2ncncc2-c2cc(Nc3ccc(CN4CCN(C(C)=O)CC4)cn3)ncn2)c1Cl [Compound 67, 3-{6-[5-(4-Acetyl-piperazin-1-ylmethyl)-pyridin-2-ylamino]-[4,5′]bipyrimidinyl-4′-ylamino}-2,4-dichloro-N-cyclopropyl-5-methoxy-benzamide]",< 100 nM
11,"COc1cc(Nc2ncncc2-c2cc(Nc3ccc(CN4CCOCC4)cn3)ncn2)c(F)c(OC)c1 [Compound 68, N4′-(2-Fluoro-3,5-dimethoxy-phenyl)-N6-(5-morpholin-4-ylmethyl-pyridin-2-yl)-[4,5′]bipyrimidinyl-6,4′-diamine]",< 100 nM
12,"CCN1CCN(Cc2ccc(Nc3cc(-c4cncnc4Nc4cc(OC)cc(OC)c4F)ncn3)nc2)CC1 [Compound 69, N6-[5-(4-Ethyl-piperazin-1-ylmethyl)-pyridin-2-yl]-N4′-(2-fluoro-3,5-dimethoxy-phenyl)-[4,5′]bipyrimidinyl-6,4′-diamine]",< 100 nM
13,"COc1cc(Nc2ncncc2-c2cc(Nc3ccc(CN4CCN(CCO)CC4)cn3)ncn2)c(F)c(OC)c1 [Compound 70, 2-(4-{6-[4′-(2-Fluoro-3,5-dimethoxy-phenylamino)-[4,5′]bipyrimidinyl-6-ylamino]-pyridin-3-ylmethyl}-piperazin-1-yl)-ethanol]",< 100 nM
14,"COc1cc(Nc2ncncc2-c2cc(Nc3cc(CN4CCOCC4)ccn3)ncn2)c(F)c(OC)c1 [Compound 71, N4′-(2-Fluoro-3,5-dimethoxy-phenyl)-N6-(4-morpholin-4-ylmethyl-pyridin-2-yl)-[4,5′]bipyrimidinyl-6,4′-diamine]",< 100 nM
15,"CCN1CCN(c2ccc(Nc3cc(-c4cncnc4Nc4cc(OC)cc(OC)c4F)ncn3)nc2)CC1 [Compound 72, N6-[5-(4-Ethyl-piperazin-1-yl)-pyridin-2-yl]-N4′-(2-fluoro-3,5-dimethoxy-phenyl)-[4,5′]bipyrimidinyl-6,4′-diamine]",< 100 nM
16,"COc1cc(OC)c(Cl)c(Nc2ncncc2-c2cc(Nc3ccc(CN4CCN(CCO)CC4)cn3)ncn2)c1F [Compound 73, 2-(4-{6-[4′-(2-Chloro-6-fluoro-3,5-dimethoxy-phenylamino)-[4,5′]bipyrimidinyl-6-ylamino]-pyridin-3-ylmethyl}-piperazin-1-yl)-ethanol]",< 100 nM
17,"COc1cc(OC)c(F)c(Nc2ncncc2-c2cc(Nc3ccc(CN4CCN(CCO)CC4)cn3)ncn2)c1F [Compound 74, 2-(4-{6-[4′-(2,6-Difluoro-3,5-di-methoxy-phenylamino)-[4,5′]bipyrimidinyl-6-ylamino]-pyridin-3-ylmethyl}-piperazin-1-yl)-ethanol]",< 100 nM
18,"COc1cc(OC)c(Cl)c(Nc2ncncc2-c2cc(Nc3ccc(CN4CCN(CCO)CC4)cn3)ncn2)c1Cl [Compound 75, 2-(4-{6-[4′-(2,6-Dichloro-3,5-dimethoxy-phenylamino)-[4,5′]bipyrimidinyl-6-yl-amino]-pyridin-3-ylmethyl}-piperazin-1-yl)-ethanol]",< 100 nM

# Next, values leading:
row,GI50,SMILES
1,< 100 nM,"COc1cc(OC)c(Cl)c(Nc2ncncc2-c2cc(Nc3ccc(CN4CCN(CCO)CC4)cn3)ncn2)c1C [Compound 76, 2-(4-{6-[4′-(2-Chloro-3,5-dimethoxy-6-methyl-phenylamino)-[4,5′]bipyrimidinyl-6-ylamino]-pyridin-3-ylmethyl}-piperazin-1-yl)-ethanol]"
2,< 100 nM,"COc1cc(OC)c(Cl)c(Nc2ncncc2-c2cc(Nc3cccc(C(C)O)c3)ncn2)c1F (centres unmarked) [Compound 77, 1-{3-[4′-(2-Chloro-6-fluoro-3,5-dimethoxy-phenylamino)-[4,5′]bipyrimidinyl-6-yl-amino]-phenyl}-ethanol]"
3,< 100 nM,"COc1cc(OC)c(F)c(Nc2ncncc2-c2cc(Nc3cccc(C(C)O)c3)ncn2)c1F (centres unmarked) [Compound 78, 1-{3-[4′-(2,6-Difluoro-3,5-dimethoxy-phenylamino)-[4,5′]bipyrimidinyl-6-ylamino]-phenyl}-ethanol]"
4,< 100 nM,"COc1cc(OC)c(Cl)c(Nc2ncncc2-c2cc(Nc3ccc(C(C)O)cn3)ncn2)c1F (centres unmarked) [Compound 79, 1-{6-[4′-(2-Chloro-6-fluoro-3,5-dimethoxy-phenylamino)-[4,5′]bipyrimidinyl-6-ylamino]-pyridin-3-yl}-ethanol]"
5,< 100 nM,"COc1cc(OC)c(F)c(Nc2ncncc2-c2cc(Nc3ccc(C(C)O)cn3)ncn2)c1F (centres unmarked) [Compound 80, 1-{6-[4′-(2,6-Difluoro-3,5-dimethoxy-phenylamino)-[4,5′]bipyrimidinyl-6-ylamino]-pyridin-3-yl}-ethanol]"
6,< 100 nM,"COc1cc(OC)c(Cl)c(Nc2ncncc2-c2cc(Nc3ccc(C(C)O)cn3)ncn2)c1C (centres unmarked) [Compound 81, 1-{6-[4′-(2-Chloro-3,5-dimethoxy-6-methyl-phenylamino)-[4,5′]bipyrimidinyl-6-ylamino]-pyridin-3-yl}-ethanol]"
7,< 100 nM,"COc1cc(OC)c(Cl)c(Nc2ncncc2-c2cc(Nc3ccc(C(C)O)cn3)ncn2)c1Cl (centres unmarked) [Compound 82, 1-{6-[4′-(2,6-Dichloro-3,5-dimethoxy-phenylamino)-[4,5′]bipyrimidinyl-6-ylamino]-pyridin-3-yl}-ethanol]"
8,< 100 nM,"COc1cc(Nc2ncncc2-c2cc(Nc3ccc(C(C)O)cn3)ncn2)c(F)c(OC)c1 (centres unmarked) [Compound 83, 1-{6-[4′-(2-Fluoro-3,5-dimethoxy-phenylamino)-[4,5′]bipyrimidinyl-6-ylamino]-pyridin-3-yl}-ethanol]"
9,< 100 nM,"COc1cc(Nc2ncncc2-c2cc(Nc3ccc(CCN4CCOCC4)cn3)ncn2)c(F)c(OC)c1 [Compound 84, N4′-(2-Fluoro-3,5-dimethoxy-phenyl)-N6-[5-(2-morpholin-4-yl-ethyl)-pyridin-2-yl]-[4,5′]bipyrimidinyl-6,4′-diamine]"
10,< 100 nM,"COc1cc(OC)c(F)c(Nc2ncncc2-c2cc(Nc3ccc(CCN4CCOCC4)cn3)ncn2)c1F [Compound 85, N4′-(2,6-Difluoro-3,5-dimethoxy-phenyl)-N6-[5-(2-morpholin-4-yl-ethyl)-pyridin-2-yl]-[4,5′]bipyrimidinyl-6,4′-diamine]"
11,250 to 500 nM,"COc1cc(OC)c(Cl)c(Nc2ncncc2-c2cc(Nc3ccc(CCN4CCOCC4)cn3)ncn2)c1C [Compound 86, N4′-(2-Chloro-3,5-dimethoxy-6-methyl-phenyl)-N6-[5-(2-morpholin-4-yl-ethyl)-pyridin-2-yl]-[4,5′]bipyrimidinyl-6,4′-diamine]"
